Laboratory results reported in PubChem BioAssay (NCI).
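Following 48 hours of exposure in 96-well plates, responses at five concentrations were used to interpolate endpoints linearly. GI50 marks 50% less growth. TGI: concentration producing complete growth inhibition.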

Columns and labels:
Assay in all cases: NCI tumour cell line growth inhibition, 48 h
CAKI-1 renal = system: CAKI-1 renal
U251 CNS = system: U251 CNS
SW-620 colon = system: SW-620 colon
TK-10 renal = system: TK-10 renal
NCI-H460 lung = system: NCI-H460 lung
COLO 205 colon = system: COLO 205 colon
MCF7 breast = system: MCF7 breast
NCI-H23 lung = system: NCI-H23 lung
RPMI-8226 leukemia = system: RPMI-8226 leukemia
OVCAR-3 ovarian = system: OVCAR-3 ovarian
NCI-H226 lung = system: NCI-H226 lung
SF-539 CNS = system: SF-539 CNS
HL-60(TB) leukemia = system: HL-60(TB) leukemia
CCRF-CEM leukemia = system: CCRF-CEM leukemia
SF-268 CNS = system: SF-268 CNS
SN12C renal = system: SN12C renal
ACHN renal = system: ACHN renal
SK-MEL-2 melanoma = system: SK-MEL-2 melanoma
SNB-19 CNS = system: SNB-19 CNS
HT29 colon = system: HT29 colon
NCI-H522 lung = system: NCI-H522 lung
MDA-MB-231 breast = system: MDA-MB-231 breast
SNB-75 CNS = system: SNB-75 CNS
KM12 colon = system: KM12 colon
MDA-MB-435 = system: MDA-MB-435
RXF 393 renal = system: RXF 393 renal
BT-549 breast = system: BT-549 breast
SK-MEL-5 melanoma = system: SK-MEL-5 melanoma
SR leukemia = system: SR leukemia
UO-31 renal = system: UO-31 renal
A549 NSCLC = system: A549 NSCLC
DU-145 prostate = system: DU-145 prostate
PC-3 prostate = system: PC-3 prostate
HCT-15 colon = system: HCT-15 colon
IGROV1 ovarian = system: IGROV1 ovarian
HS 578T breast = system: HS 578T breast
786-0 renal = system: 786-0 renal
UACC-257 melanoma = system: UACC-257 melanoma
SK-MEL-28 melanoma = system: SK-MEL-28 melanoma
HOP-62 NSCLC = system: HOP-62 NSCLC
HCT-116 colon = system: HCT-116 colon
MOLT-4 leukemia = system: MOLT-4 leukemia
LOX IMVI melanoma = system: LOX IMVI melanoma
SF-295 CNS = system: SF-295 CNS
OVCAR-8 ovarian = system: OVCAR-8 ovarian
UACC-62 melanoma = system: UACC-62 melanoma
EKVX NSCLC = system: EKVX NSCLC
OVCAR-5 ovarian = system: OVCAR-5 ovarian
K-562 leukemia = system: K-562 leukemia
NCI/ADR-RES ovarian = system: NCI/ADR-RES ovarian
HOP-92 NSCLC = system: HOP-92 NSCLC
M14 melanoma = system: M14 melanoma
HCC-2998 colon = system: HCC-2998 colon
MALME-3M melanoma = system: MALME-3M melanoma

## CN(c1ccc(C(=O)O)cc1)c1cc(O/N=[N+](\[O-])N(C)C)c([N+](=O)[O-])cc1[N+](=O)[O-]
CAKI-1 renal
  GI50: 1.79 µM
  TGI: 4 µM
U251 CNS
  GI50: 3.69 µM
  TGI: 14.1 µM
SW-620 colon
  GI50: 3.64 µM
  TGI: > 100 µM
TK-10 renal
  GI50: 13.9 µM
  TGI: 26.9 µM
NCI-H460 lung
  GI50: 18.9 µM
  TGI: > 100 µM
COLO 205 colon
  GI50: 8.78 µM
  TGI: > 100 µM
MCF7 breast
  GI50: 6.8 µM
  TGI: 54.8 µM
NCI-H23 lung
  GI50: 4.83 µM
  TGI: 29.2 µM
RPMI-8226 leukemia
  GI50: 2.79 µM
  TGI: 18 µM
OVCAR-3 ovarian
  GI50: 2.62 µM
  TGI: 6.92 µM
NCI-H226 lung
  GI50: 11.3 µM
  TGI: 29 µM
SF-539 CNS
  GI50: 16.6 µM
  TGI: 35.8 µM
HL-60(TB) leukemia
  GI50: 2.84 µM
  TGI: 27.4 µM
CCRF-CEM leukemia
  GI50: > 100 µM
  TGI: > 100 µM
SF-268 CNS
  GI50: 13.1 µM
  TGI: 36.3 µM
SN12C renal
  GI50: 12.2 µM
  TGI: 25.3 µM
ACHN renal
  GI50: 3.8 µM
  TGI: 14.1 µM
SK-MEL-2 melanoma
  GI50: 14.9 µM
  TGI: 39.6 µM
SNB-19 CNS
  GI50: 14.6 µM
  TGI: 40.7 µM
HT29 colon
  GI50: 23 µM
  TGI: > 100 µM
NCI-H522 lung
  GI50: 15.1 µM
  TGI: > 100 µM
MDA-MB-231 breast
  GI50: 3.71 µM
  TGI: 12.2 µM
SNB-75 CNS
  GI50: 25.6 µM
  TGI: 55.6 µM
KM12 colon
  GI50: 10.9 µM
  TGI: 23.9 µM
MDA-MB-435
  GI50: 4.84 µM
  TGI: 19.9 µM
RXF 393 renal
  GI50: 17.1 µM
  TGI: 33.8 µM
BT-549 breast
  GI50: 17.4 µM
  TGI: 32.6 µM
SK-MEL-5 melanoma
  GI50: 19.1 µM
  TGI: 38.7 µM
SR leukemia
  GI50: 19.8 µM
  TGI: > 100 µM
UO-31 renal
  GI50: 32.1 µM
  TGI: > 100 µM
A549 NSCLC
  GI50: 23.5 µM
  TGI: 63.7 µM
DU-145 prostate
  GI50: 17.1 µM
  TGI: 33.5 µM
PC-3 prostate
  GI50: 17.5 µM
  TGI: 38.1 µM
HCT-15 colon
  GI50: 2.03 µM
  TGI: 5.3 µM
IGROV1 ovarian
  GI50: 5.48 µM
  TGI: 24.5 µM
HS 578T breast
  GI50: 21.5 µM
  TGI: 61.3 µM
786-0 renal
  GI50: 3.25 µM
  TGI: 14.6 µM
UACC-257 melanoma
  GI50: 21 µM
  TGI: 40.6 µM
SK-MEL-28 melanoma
  GI50: 21 µM
  TGI: 57.1 µM
HOP-62 NSCLC
  GI50: 14.5 µM
  TGI: 31.3 µM
HCT-116 colon
  GI50: 2.72 µM
  TGI: 10.4 µM
MOLT-4 leukemia
  GI50: 12.1 µM
  TGI: > 100 µM
LOX IMVI melanoma
  GI50: 1.86 µM
  TGI: 4.33 µM
SF-295 CNS
  GI50: 12.6 µM
  TGI: 27 µM
OVCAR-8 ovarian
  GI50: 22.3 µM
  TGI: 54.5 µM
UACC-62 melanoma
  GI50: 7.29 µM
  TGI: 19.8 µM
EKVX NSCLC
  GI50: 18.2 µM
  TGI: 36.2 µM
OVCAR-5 ovarian
  GI50: 10.8 µM
  TGI: 72.5 µM
K-562 leukemia
  GI50: 6.99 µM
  TGI: > 100 µM
NCI/ADR-RES ovarian
  GI50: 3.35 µM
  TGI: 17.2 µM

## CCOC(=O)c1ccc(N=C2S/C(=C\C(=S)Nc3ccccc3)N(c3ccccc3)C2=Nc2ccc(C(=O)OCC)cc2)cc1
SW-620 colon
  TGI: > 100 µM
TK-10 renal
  TGI: > 100 µM
COLO 205 colon
  TGI: > 100 µM
MCF7 breast
  TGI: > 100 µM
NCI-H23 lung
  TGI: > 100 µM
RPMI-8226 leukemia
  TGI: > 100 µM
NCI-H226 lung
  TGI: > 100 µM
HL-60(TB) leukemia
  TGI: > 100 µM
HOP-92 NSCLC
  TGI: > 100 µM
CCRF-CEM leukemia
  TGI: > 100 µM
SN12C renal
  TGI: > 100 µM
SK-MEL-2 melanoma
  TGI: > 100 µM
SNB-19 CNS
  TGI: > 100 µM
HT29 colon
  TGI: > 100 µM
MDA-MB-231 breast
  TGI: > 100 µM
SNB-75 CNS
  TGI: > 100 µM
KM12 colon
  TGI: > 100 µM
RXF 393 renal
  TGI: > 100 µM
BT-549 breast
  TGI: > 100 µM
SK-MEL-5 melanoma
  TGI: > 100 µM
SR leukemia
  TGI: > 100 µM
UO-31 renal
  TGI: > 100 µM
M14 melanoma
  TGI: > 100 µM
A549 NSCLC
  TGI: > 100 µM
PC-3 prostate
  TGI: > 100 µM
HCT-15 colon
  TGI: > 100 µM
IGROV1 ovarian
  TGI: > 100 µM
HS 578T breast
  TGI: > 100 µM
786-0 renal
  TGI: > 100 µM
UACC-257 melanoma
  TGI: > 100 µM
SK-MEL-28 melanoma
  TGI: > 100 µM
HOP-62 NSCLC
  TGI: > 100 µM
HCT-116 colon
  TGI: > 100 µM
MOLT-4 leukemia
  TGI: > 100 µM
OVCAR-8 ovarian
  TGI: > 100 µM
HCC-2998 colon
  TGI: > 100 µM
MALME-3M melanoma
  TGI: 82.6 µM
UACC-62 melanoma
  TGI: > 100 µM
EKVX NSCLC
  TGI: > 100 µM
K-562 leukemia
  TGI: > 100 µM
